# Source: patent publication US10537602B2, “Feed for fish” (NUTRECO IP ASSETS B.V., priority 2006, dated 2020)
# How the values were obtained:
# Format in all cases: in vivo
# [1] = system: Atlantic salmon (Salmo salar); assay: Example 1 feeding study: growth and feed conversion of fish on feed with carvacrol or Salvia officinalis extract; settings: for Final weight / Feed conversion ratio / Specific growth rate: 67 days, triplicate, Salvia = Salvia officinalis extract; for Final weight: initial weight about 170 g, sea water 11.8° C.
# Protocol: (§1) Growth rate is expressed as percentage increase in body mass from day to day (Specific Growth Rate, SGR). This is calculated as:
# (§2) [formula] FinalW=final weight InitW=initial weight Days=time from measuring initial weight to final weight
# (§3) The common term to describe this is Feed Conversion Ratio (FCR) defined as: FCR=Amount of feed fed (kg)/Net growth of the fish (kg)
# A control feed was prepared from fish meal (407.4 g), soybean meal (55.8 g), corn gluten (196.1 g), wheat (88.0 g), fish oil (247.3 g), mineral and vitamin premixes (3.8 g), yttrium premix (1.0 g, used to measure lipid digestibility as discussed below) and astaxanthin preparation (0.6 g). Pellets were extruded using the process explained above and coated with the fish oil.
# Test feeds containing 0.1 wt % and 0.2 wt % carvacrol formulation (containing 50 wt % carvacrol and 50 wt % silica carrier) were prepared. The amount of active substance was 500 and 1000 mg per kg feed, respectively. In the comparison feeds, the amount of wheat was reduced to 87.0 g and 86.0 g respectively. The carvacrol formulation was added with the other microingredients to the mixer before preconditioning.
# Test feeds containing 0.1 wt % and 0.2 wt % formulation of Salvia officinalis salvia extract (containing 50 wt % salvia extract and 50 wt % silica carrier) were prepared in a similar way.
# The feed was fed to Atlantic salmon (Salmo salar) weighing 169 g (±3 g) at the onset of the study. The fish was stocked in tanks (1 m×1 m). There were 30 fish in each tank. Sea water temperature was 11.8° C. (±0.5° C.). The fish were fed for 67 days. The study was run in triplicate.
# [2] = system: Atlantic salmon (Salmo salar); assay: Example 2 feeding study: growth and feed conversion of fish on feed with carvacrol or Salvia lavandulifolia extract; settings: for Feed conversion ratio / Specific growth rate / Final weight: 82 days, Salvia = Salvia lavandulifolia extract; for Final weight: initial weight about 199 g, sea water 12° C., triplicate
# Protocol: as §1, §2, §3
# (§4) Control and comparison feeds were prepared as in Example 1. Salvia lavandulifolia salvia extract (CAS 8016-65-7) was used.
# (§5) The feed was fed to Atlantic salmon (Salmo salar) weighing 199 g (±2.4 g) at the onset of the study. The fish were stocked in tanks (1 m×1 m). There were 35 fish in each tank. Sea water temperature was 12° C. The fish were fed for 82 days. The study was run in triplicate.
# [3] = system: Atlantic salmon (Salmo salar); assay: Example 2 lipid digestibility (Apparent Digestibility Coefficient, yttrium marker); settings: for ADC (%) lipid: Example 2, Salvia = Salvia lavandulifolia extract
# Protocol: (§6) To achieve the above objects, additives that can increase the digestibility of fat and or protein are of value. This can be measured by the “Apparent Digestibility Coefficient”, calculated as: […]
# (§7) Yttrium is added to the diet for the purpose of calculating ADC, but is otherwise not a necessary component of fish feed.
# as §4, §5
# [4] = system: Atlantic salmon (Salmo salar); assay: Example 3 apparent digestibility of protein, C16:0, saturated fatty acids and total lipid; settings: for ADC protein (%) / ADC C16:0 (%) / ADC saturated fatty acids (%) / ADC total lipid (%): added as 100% oil, 96 days, one tank, Salvia lavandulifolia; for ADC protein (%): 8.9° C.
# Protocol: as §6, §7
# Control feed was prepared from South-American fish meal (526.2 g), soybean meal (40.0 g), corn gluten (79.0 g), wheat (120.4 g), South-American fish oil (230.3 g), mineral and vitamin premixes (2.5 g), yttrium premix (1.0 g), and astaxanthin preparation (0.6 g). Pellets were extruded using the process explained above and coated with the fish oil.
# Test feeds were prepared containing carvacrol and/or salvia extract (Salvia lavandulifolia). Carvacrol and/or salvia extract were each added as 100% oil. Two different inclusion levels of separate carvacrol and salvia extract (0.5 g/kg and 1.0 g/kg) were tested.
# Two test feeds were prepared with a combination of carvacrol and salvia extract. The inclusion levels were 1.0 g carvacrol and 0.2 g/kg salvia extract, and 0.5 g/kg carvacrol and 0.5 g/kg salvia extract, respectively. The carvacrol oil and/or salvia extract was mixed with the fish oil and coated onto the surface of the pellets by vacuum coating after drying of the pellets.
# Pellet size was 3 mm for all feeds.
# The feed was fed to Atlantic salmon (Salmo salar) weighing 156 g (±13 g) at the onset of the study. The fish was stocked in tanks holding 100 L water. There were 25 fish in each tank. Sea water temperature was 8.9° C.±0.2° C. The fish were fed for 96 days. The study was run with four control groups and one tank each for the different inclusion levels of carvacrol, salvia extract or combined carvacrol and salvia.
# Apparent digestibility was determined for protein, the saturated fatty acid C16:0, the sum of all saturated fatty acids and the total lipid.
# [5] = with increasing amounts in feed, Example 1, in words
# [6] = with increasing amounts in feed, Example 2, in words
# [7] = with increasing amounts in feed, Example 3, in words
smiles,measurement,setting,value
"Cc1ccc(C(C)C)cc1O [Carvacrol, 2-methyl-5(1-methylethyl)-phenol]",Final weight,[1]; 0.05 wt % additive in feed,339 ± 18 g
same,Feed conversion ratio,[1]; 0.05 wt % additive in feed,0.91 ± 0.05
same,Specific growth rate,[1]; 0.05 wt % additive in feed,1.04 ± 0.05
same,Final weight,[1]; 0.1 wt % additive in feed,354 ± 6 g
same,Feed conversion ratio,[1]; 0.1 wt % additive in feed,0.87 ± 0.03
same,Specific growth rate,[1]; 0.1 wt % additive in feed,1.09 ± 0.03
same,feed utilisation,[1]; [5],improved
same,fish growth,[1]; [5],increased
same,Feed conversion ratio,[2]; 0.05 wt % additive in feed,0.68
same,Specific growth rate,[2]; 0.05 wt % additive in feed,1.16
same,Final weight,[2]; 0.05 wt % additive in feed,512 g
same,Feed conversion ratio,[2]; 0.1 wt % additive in feed,0.70
same,Specific growth rate,[2]; 0.1 wt % additive in feed,1.13
same,Final weight,[2]; 0.1 wt % additive in feed,503 g
same,feed utilisation,[2]; [6],improved
same,fish growth,[2]; [6],increased
same,ADC (%) lipid,[3]; 0.05 wt % additive in feed,95.78%
same,ADC (%) lipid,[3]; 0.1 wt % additive in feed,97.65%
same,lipid digestibility,[3]; [6],increased
same,ADC protein (%),[4]; 0.05 wt % additive in feed,88.8%
same,ADC C16:0 (%),[4]; 0.05 wt % additive in feed,75.3%
same,ADC saturated fatty acids (%),[4]; 0.05 wt % additive in feed,75.5%
same,ADC total lipid (%),[4]; 0.05 wt % additive in feed,89.2%
same,ADC protein (%),[4]; 0.10 wt % additive in feed,87.6%
same,ADC C16:0 (%),[4]; 0.10 wt % additive in feed,74.0%
same,ADC saturated fatty acids (%),[4]; 0.10 wt % additive in feed,74.4%
same,ADC total lipid (%),[4]; 0.10 wt % additive in feed,89.2%
same,lipid digestibility,[4]; [7],increased
same,protein digestibility,[4]; [7],increased
